Reference: the supplement of paper PMC13380429

Tests used:
Details in all cases: 72 h
HepG2 [1] = test: cell viability relative to DMSO; higher = less toxic
Vero E6 [2] = test: as above
Caco-2 [3] = test: as above
Calu-3 [4] = test: as above
U2OS [5] = test: as above
HepG2 [6] = test: relative viability EC50 (midpoint between 100% and the lowest measured viability); higher = less toxic
Vero E6 [7] = test: as above
Caco-2 [8] = test: as above
Calu-3 [9] = test: as above
U2OS [10] = test: as above
HepG2 [11] = test: drug sensitivity score (DSS) for viability; higher = more toxic; extreme values may be limits of the assay
Vero E6 [12] = test: as above
Caco-2 [13] = test: as above
Calu-3 [14] = test: as above
U2OS [15] = test: as above

| Structure (SMILES) | cell viability (HepG2 [1]; 1 nM) [%] | cell viability (HepG2 [1]; 10 nM) [%] | cell viability (HepG2 [1]; 100 nM) [%] | cell viability (HepG2 [1]; 1000 nM) [%] | cell viability (HepG2 [1]; 10000 nM) [%] | cell viability (Vero E6 [2]; 1 nM) [%] | cell viability (Vero E6 [2]; 10 nM) [%] | cell viability (Vero E6 [2]; 100 nM) [%] | cell viability (Vero E6 [2]; 1000 nM) [%] | cell viability (Vero E6 [2]; 10000 nM) [%] | cell viability (Caco-2 [3]; 1 nM) [%] | cell viability (Caco-2 [3]; 10 nM) [%] | cell viability (Caco-2 [3]; 100 nM) [%] | cell viability (Caco-2 [3]; 1000 nM) [%] | cell viability (Caco-2 [3]; 10000 nM) [%] | cell viability (Calu-3 [4]; 1 nM) [%] | cell viability (Calu-3 [4]; 10 nM) [%] | cell viability (Calu-3 [4]; 100 nM) [%] | cell viability (Calu-3 [4]; 1000 nM) [%] | cell viability (Calu-3 [4]; 10000 nM) [%] | cell viability (U2OS [5]; 1 nM) [%] | cell viability (U2OS [5]; 10 nM) [%] | cell viability (U2OS [5]; 100 nM) [%] | cell viability (U2OS [5]; 1000 nM) [%] | cell viability (U2OS [5]; 10000 nM) [%] | relative viability EC50 (HepG2 [6]) [µM] | relative viability EC50 (Vero E6 [7]) [µM] | relative viability EC50 (Caco-2 [8]) [µM] | relative viability EC50 (Calu-3 [9]) [µM] | relative viability EC50 (U2OS [10]) [µM] | drug sensitivity score (HepG2 [11]) | drug sensitivity score (Vero E6 [12]) | drug sensitivity score (Caco-2 [13]) | drug sensitivity score (Calu-3 [14]) | drug sensitivity score (U2OS [15]) |
| --- | --- | --- | --- | --- | --- | --- | --- | --- | --- | --- | --- | --- | --- | --- | --- | --- | --- | --- | --- | --- | --- | --- | --- | --- | --- | --- | --- | --- | --- | --- | --- | --- | --- | --- | --- |
| COc1cccc2c1C(=O)c1c(O)c3c(c(O)c1C2=O)C[C@@](O)(C(=O)CO)C[C@@H]3O[C@H]1C[C@H](N2CCO[C@H](OC)C2)[C@H](O)[C@H](C)O1 [nemorubicin] | 55.4 | 0.1 | 6.3 | 3 | 1.5 | 72.6 | 2.4 | 2.8 | 0.8 | 2.7 | 88.8 | 24.6 | 30.4 | 32.6 | 24.5 | 69.2 | 21.2 | 35.1 | 31.5 | 30 | 91.8 | 1.3 | 0.9 | 0.3 | 1.3 | 0.0011 | 0.0016 | 0.002 | 0.0012 | 0.0025 | 48 | 46.1 | 35.1 | 38.4 | 44.1 |
| OCc1cccnc1 [nicotinyl-alcohol-tartrate] | 95.4 | 102 | 91.2 | 104 | 96.1 | 92.6 | 101 | 87.8 | 101 | 91.8 | 97.8 | 97 | 102 | 96.1 | 106 | 96.6 | 100 | 92.7 | 99.3 | 96.4 | 102 | 104 | 96.7 | 100 | 95.5 | > 10 | > 10 | > 10 | > 10 | > 10 | 0 | 0 | 0 | 0 | 0 |
| O=C1NCCN1c1ncc([N+](=O)[O-])s1 [niridazole] | 105 | 98.8 | 105 | 106 | 97.8 | 102 | 104 | 108 | 115 | 85.5 | 105 | 80.1 | 93.2 | 87.8 | 102 | 99.6 | 107 | 96.6 | 88 | 103 | 97.1 | 98.7 | 99.3 | 94.8 | 99.8 | > 10 | > 10 | > 10 | > 10 | > 10 | 0 | 0.1 | 0 | 0 | 0 |
| CC(C)C[C@@H](N)C(=O)N[C@H]1C(=O)N[C@@H](CC(N)=O)C(=O)N[C@H]2C(=O)N[C@H]3C(=O)N[C@H](C(=O)N[C@H](C(=O)O)c4cc(O)cc(O)c4-c4cc3ccc4O)[C@H](O)c3ccc(c(Cl)c3)Oc3cc2cc(c3O[C@@H]2O[C@H](CO)[C@@H](O)[C@H](O)[C@H]2O[C@H]2C[C@](C)(N)[C@H](O)[C@H](C)O2)Oc2ccc(cc2Cl)[C@H]1O [norvancomycin] | 102 | 95.8 | 97.3 | 86.9 | 97.7 | 109 | 94.8 | 102 | 97 | 104 | 91.9 | 93.8 | 104 | 95.7 | 98.5 | 102 | 100 | 104 | 97.9 | 91.9 | 100 | 104 | 96.6 | 102 | 102 | > 10 | > 10 | > 10 | > 10 | > 10 | 0 | 0 | 0 | 0 | 0 |
| CCCCCCCCN=c1ccn(CCCCCCCCCCn2ccc(=NCCCCCCCC)cc2)cc1 [octenidine] | 89.6 | 93.4 | 102 | 65.6 | 2.6 | 96.8 | 94.7 | 92.5 | 83.7 | 0.1 | 98.7 | 97.5 | 101 | 78 | 1 | 106 | 101 | 98.6 | 98.6 | 0.7 | 95.5 | 104 | 95.4 | 89.9 | 2.7 | 1.27 | 1.91 | 1.65 | 3.07 | 2.31 | 10.2 | 8.2 | 8.9 | 5.7 | 7 |
| COC(=O)N1CCN(Cc2cccc(NC(=O)Nc3ccc(C)nc3)c2F)CC1 [omecamtiv-mecarbil] | 105 | 96.1 | 100 | 98.5 | 97.1 | 105 | 100 | 104 | 101 | 99.1 | 93 | 89.7 | 95.3 | 96.3 | 87 | 92.4 | 94.4 | 107 | 97.4 | 99.9 | 97 | 101 | 93.3 | 99 | 97.4 | > 10 | > 10 | > 10 | > 10 | > 10 | 0 | 0 | 0 | 0 | 0 |
